Tested on: Oct4
Assay: Luciferase reporter assay in NCCIT-Oct4 cells
Type: cell-based, human
Details: histone demethylase inhibitors, 48 h
Experimental: The ability of the lead compound to induce Oct4 at translational level was tested in a luciferase reporter cell line in human embryonic carcinoma NCCIT cells driven by Oct4 response elements (NCCIT-Oct4). The compound lead to a nearly 10-fold induction of Oct4 at 10 nM compared to untreated cells (FIG. 1B). Consequently, the lead compound was named “Oct4 inducing compound 3” (O4I3).
Luciferase reporter assay was performed using Beatle Juice Kit (PJK, Germany) according to the manufacturer's instruction. NCCIT-Oct and NCCIT-Nanog reporter cells were plated into a 24-well plate (100,000 cells/well) for 24 h. Cells were treated with compounds as indicated and harvested with luciferase lysis buffer (25 mM Tris phosphate buffer pH=7.8, 4 mM EGTA, 1% Triton X-100, 10% glycerol and 2 mM fresh DTT, filtered through 0.45 μm sterile filter) at 37° C. for 15 min. The protein concentration was determined by Bradford assay (Sigma, Germany). 100 μL reaction mixture containing luciferin and ATP was added to 20 μL cell lysis in a white plate (Gibco, Germany), incubated for 5 min and measured by a luminometer plate-reader. The activity was determined as percent luminous intensity of treated cells over control cells from at least five-independent experiments.

Row | Compound | induction of OCT4 expression in NCCIT-OCT4 reporter cell line
1 | CCOC(=O)CCNc1cc(N2CCc3ccccc3CC2)nc(-c2ccccn2)n1 [GSK-J4] | not
2 | CN(C)NC(=O)CCC(=O)O [daminozide] | not
3 | CC(C)c1c(-c2ccccc2)[nH]c2c(C#N)cnn2c1=O [CPI-455] | 3 fold

Tested on: Oct4
Assay: Luciferase reporter assay in NCCIT-Oct4 cells
Type: cell-based, human
Details: 100 nM, NCCIT-Oct4 cells

Row | Compound | Oct4 inducing activity as compared to the activity of O4I3 (101)
4 | Cc1ccc2nc(-c3ccc(F)cc3)cn2c1 [Compound 102, 2-(4-fluorophenyl)-6-methyl-imidazo[1,2-a]pyridine] | increased the activity
5 | COc1ccc(-c2cn3cc(C)ccc3n2)cc1 [Compound 106, 2-(4-methoxyphenyl)-6-methyl-imidazo[1,2-a]pyridine] | significantly reduced the induction
6 | Cc1ccc2nc(-c3ccc(C#N)cc3)cn2c1 [Compound 108, 4-(6-methylimidazo[1,2-a]pyridin-2-yl)benzonitrile] | significantly reduced the induction
7 | Cc1ccc2nc(-c3ccc(O)cc3)cn2c1 [Compound 107, 4-(6-methylimidazo[1,2-a]pyridin-2-yl)phenol] | significantly reduced the induction
8 | Cc1ccc2nc(-c3ccc(Br)cc3)cn2c1 [Compound 104, 2-(4-bromophenyl)-6-methyl-imidazo[1,2-a]pyridine] | increased the activity
9 | Cc1ccc2nc(-c3ccccc3)cn2c1 [Compound 109, 6-methyl-2-phenyl-imidazo[1,2-a]pyridine] | not affected
10 | Cc1ccc2nc(-c3ccc(Cl)cc3)cn2c1 [Compound 103, 2-(4-chlorophenyl)-6-methyl-imidazo[1,2-a]pyridine] | increased the activity
11 | Cc1ccc2nc(-c3ccc([N+](=O)[O-])cc3)cn2c1 [Compound 105, 6-methyl-2-(4-nitrophenyl)imidazo[1,2-a]pyridine] | significantly reduced the induction
